The values below come from article PMC12990037, “Discovery of Two Structurally Distinct Classes of Inhibitors Targeting the Nuclease MUS81 and Enhancing Efficacy of Chemotherapy in Cancer Cells” (Journal of Medicinal Chemistry, 2026).

SMILES strings stand for the structures.

This experiment concerns CAL51 WT cells. Briefly: Long-term cell survival assay (retreatment twice a week). In kind it is cell-based. Conditions: 1–3 μM, treated twice a week for almost 3 weeks. The procedure:
To evaluate the long-term effects of the inhibitors on the cellular viability, we treated cells twice a week for almost 3 weeks with low doses of MU262 and MU876.
CAL51 WT cells were treated with DMSO, MU262 = 18, MU876 = 32, nontargeting siRNA, or siRNA targeting MUS81. Cells were trypsinized, counted, and replated twice a week and retreated with inhibitors or siRNA with every passage. The cell number was plotted at each time point. Data were plotted in Graphpad Prism (GraphPad Software) and a 2-way ANOVA test was used to assess significance.

Regarding `CCc1nn2c(O)c(-c3nc4ccccc4[nH]3)nnc2c1-c1ccc(F)cc1` [Compound 18, 3-(1H-Benzo[d]imidazole-2-yl)-7-ethyl-8-(4-fluorophenyl)pyrazolo[5,1-c][1,2,4]triazin-4-ol], the long-term viability result is “significant reduction in viability”.
